For 30 compounds, IC50 results are on record in patent publication US20240148744A1 (Celgene Corporation, priority 2021, published 2024).

Structures are written as SMILES.

In one experiment the test system is Onchocerca gutturosa adult male worms. The experiment is described as follows: Onchocerca gutturosa in vitro screening model: adult worm motility score and MTT/formazan viability. As to conditions: read-out: O. gutt Activity class. Format: cell-based.
As for `CC(C)Oc1ccc(S(=O)(=O)Nc2cccc3cccnc23)nc1` [Compound 242, 5-isopropoxy-N-(quinolin-8-yl)pyridine-2-sulfonamide], the IC50 was below 200 nM.
On the same count and under the same terms, as for `CCn1ccnc1S(=O)(=O)Nc1ccc(Cl)c2cccnc12` [Compound 110, N-(5-chloro-quinolin-8-yl)-1-ethyl-1H-imidazole-2-sulfonamide], the figure is 200 to 500 nM; as for `N#Cc1nc(Cl)ccc1S(=O)(=O)Nc1cccc2cccnc12` [Compound 169, 6-chloro-2-cyano-N-(quinolin-8-yl)pyridine-3-sulfonamide], 500 to 5000 nM; as for `O=S(=O)(Nc1cccc2cccnc12)c1ccccn1` [Compound 280, N-(quinolin-8-yl)pyridine-2-sulfonamide], 500 to 5000 nM.
Same read-out and setting: under `O=S(=O)(Nc1cccc2cccnc12)c1nccn1C1CC1(F)F` (stereo not drawn) [Compound 174, 1-(2,2-difluorocyclo-propyl)-N-(quinolin-8-yl)-1H-imidazole-2-sulfonamide] stands below 200 nM; under `COc1ccnc2c(NS(=O)(=O)c3ccc(C)cn3)cccc12` [Compound 124, N-(4-methoxy-quinolin-8-yl)-5-methylpyr-idine-2-sulfon-amide], below 200 nM.
As to `CC(C)c1cccnc1S(=O)(=O)Nc1c(Cl)ccc2cccnc12` [Compound 68, N-(7-chloro-quinolin-8-yl)-3-iso-propylpyr-idine-2-sulfonamide], the IC50 was below 200 nM.
On the same count and under the same terms, under `Cc1cccnc1S(=O)(=O)Nc1c(N2CCOCC2)ccc2cccnc12` [Compound 18, 3-methyl-N-(7-morpho-linoquinolin-8-yl)pyridine-2-sulfonamide] stands 200 to 500 nM; under `Cc1cccnc1S(=O)(=O)Nc1cccc2cccnc12` [Compound 213, 3-methyl-N-(quinolin-8-yl)pyridine-2-sulfonamide], below 200 nM.
Still for that read-out and setting: as for `CN(C)C(=O)c1cccnc1S(=O)(=O)Nc1cccc2cccnc12` [Compound 207, N,N-dimethyl-2-(N-quinolin-8-ylsulfamoyl) nicotinamide], the figure is 500 to 5000 nM.
For the compound `CCn1ccc(S(=O)(=O)Nc2cccc3cccnc23)n1` [Compound 193, 1-ethyl-N-(quinolin-8-yl)-1H-pyrazole-3-sulfonamide], the IC50 was in the range of 200 to 500 nM.
Still for that read-out and setting: under `Cc1ccc(S(=O)(=O)Nc2cccc3c(Cl)ccnc23)nc1` [Compound 119, N-(4-chloro-quinolin-8-yl)-5-methylpyr-idine-2-sulfon-amide] stands below 200 nM; under `O=S(=O)(Nc1c(Cl)ccc2cccnc12)c1ncccc1Cl` [Compound 73, 3-chloro-N-(7-chloro-quinolin-8-yl)pyridine-2-sulfonamide], below 200 nM.
On the same count and under the same terms, as for `CCn1ccnc1S(=O)(=O)Nc1cc(C)cc2cccnc12` [Compound 103, 1-ethyl-N-(6-methylquin-olin-8-yl)-1H-imidazole-2-sulfonamide], the figure is 500 to 5000 nM.
Regarding `N#CCc1cccc(S(=O)(=O)Nc2cccc3cccnc23)n1` [Compound 150, 6-(cyanomethyl)-N-(quinolin-8-yl)pyridine-2-sulfonamide], the IC50 was 200 to 500 nM.
On to `Cc1cccnc1S(=O)(=O)Nc1c(Cl)ccc2cccnc12` [Compound 100, N-(7-chloro-quinolin-8-yl)-3-methylpyr-idine-2-sulfon-amide], for which the IC50 was below 200 nM.
On the same count and under the same terms, as for `N#Cc1cccc(S(=O)(=O)Nc2ccc(F)c3cccnc23)c1` [Compound 72, 3-cyano-N-(5-fluoroquin-olin-8-yl)ben-zenesulfon-amide], the figure is below 200 nM; as for `CN(C)c1nccnc1S(=O)(=O)Nc1c(Cl)ccc2cccnc12` [Compound 76, N-(7-chloro-quinolin-8-yl)-3-(dimethyl-amino)pyr-azine-2-sulfonamide], 500 to 5000 nM; as for `Cc1ncccc1S(=O)(=O)Nc1cccc2cccnc12` [Compound 155, 2-methyl-N-(quinolin-8-yl)pyridine-3-sulfonamide], 500 to 5000 nM.
Turning to `O=S(=O)(Nc1cccc2cccnc12)c1ccc(C(F)F)nc1` [Compound 153, 6-(difluoromethyl)-N-(quinolin-8-yl)pyridine-3-sulfonamide], the IC50 is 500 to 5000 nM.
On the same count and under the same terms, as for `O=S(=O)(Nc1cccc2cccnc12)c1ccc(C(F)(F)F)nc1` [Compound 190, N-(quinolin-8-yl)-6-(trifluoromethyl) pyridine-3-sulfonamide], the figure is below 200 nM; as for `Cc1ccc(S(=O)(=O)Nc2c(Cl)ccc3cccnc23)nc1` [Compound 114, N-(7-chloro-quinolin-8-yl)-5-methylpyr-idine-2-sulfon-amide], below 200 nM; as for `Cc1cccnc1S(=O)(=O)Nc1cccc2c(OCC3CC3)ccnc12` [Compound 28, N-(4-(cyclo-propylmeth-oxy)quinolin-8-yl)-3-meth-ylpyridine-2-sulfonamide], 500 to 5000 nM.
Same read-out and setting: as for `Cc1cccnc1S(=O)(=O)Nc1cccc2cc(C3CC3)cnc12` [Compound 29, N-(3-cyclo-propylquin-olin-8-yl)-3-methylpyr-idine-2-sulfonamide], the figure is 500 to 5000 nM; as for `O=S(=O)(Nc1cccc2cccnc12)c1ncccc1Cl` [Compound 215, 3-chloro-N-(quinolin-8-yl)pyridine-2-sulfonamide], below 200 nM; as for `Cc1ccc(S(=O)(=O)Nc2c(C)ccc3cccnc23)nc1` [Compound 112, 5-methyl-N-(7-methyl-quinolin-8-yl)-pyridine-2-sulfonamide], 200 to 500 nM.
The same measure, in the same setting: as for `O=S(=O)(Nc1cccc2cccnc12)c1ccc(-c2ccc(F)cc2)nc1` [Compound 182, 6-(4-fluorophenyl)-N-(quinolin-8-yl)pyridine-3-sulfonamide], the figure is below 200 nM; as for `CCn1ccnc1S(=O)(=O)Nc1cccc2cc(OC)cnc12` [Compound 86, 1-ethyl-N-(3-methoxyquin-olin-8-yl)-1H-imidazole-2-sulfonamide], below 200 nM; as for `Cc1cccnc1S(=O)(=O)Nc1cccc2c1N(C)CCC2` [Compound 55, 3-methyl-N-(1-methyl-1,2,3,4-tetra-hydroquin-olin-8-yl)-pyridine-2-sulfonamide], 500 to 5000 nM.
`Cc1cc(NS(=O)(=O)c2nccn2C(C)C)c2ncccc2c1` [Compound 35]: the IC50 was in the range of 200 to 500 nM.

The test system of a further experiment is Dirofilaria immitis. The experiment is described as follows: Heartworm screen Dirofilaria immitis (stage DiMF/DiL4 not specified in the tables). Format: cell-based. Particulars: read-out: D. immitis Activity class.
Regarding `CC(C)Oc1ccc(S(=O)(=O)Nc2cccc3cccnc23)nc1` [Compound 242, 5-isopropoxy-N-(quinolin-8-yl)pyridine-2-sulfonamide], the IC50 lay in the range of 200 to 500 nM.
Still for that read-out and setting: under `CCn1ccnc1S(=O)(=O)Nc1ccc(Cl)c2cccnc12` [Compound 110, N-(5-chloro-quinolin-8-yl)-1-ethyl-1H-imidazole-2-sulfonamide] stands 200 to 500 nM; under `N#Cc1nc(Cl)ccc1S(=O)(=O)Nc1cccc2cccnc12` [Compound 169, 6-chloro-2-cyano-N-(quinolin-8-yl)pyridine-3-sulfonamide], 500 to 5000 nM; under `O=S(=O)(Nc1cccc2cccnc12)c1ccccn1` [Compound 280, N-(quinolin-8-yl)pyridine-2-sulfonamide], 200 to 500 nM.
`O=S(=O)(Nc1cccc2cccnc12)c1nccn1C1CC1(F)F` (stereo not drawn) [Compound 174, 1-(2,2-difluorocyclo-propyl)-N-(quinolin-8-yl)-1H-imidazole-2-sulfonamide]: the IC50 fell in the range of 200 to 500 nM.
For `COc1ccnc2c(NS(=O)(=O)c3ccc(C)cn3)cccc12` [Compound 124, N-(4-methoxy-quinolin-8-yl)-5-methylpyr-idine-2-sulfon-amide], the IC50 is 500 to 5000 nM.
Same read-out and setting: as for `CC(C)c1cccnc1S(=O)(=O)Nc1c(Cl)ccc2cccnc12` [Compound 68, N-(7-chloro-quinolin-8-yl)-3-iso-propylpyr-idine-2-sulfonamide], the figure is 500 to 5000 nM.
Still for that read-out and setting: under `Cc1cccnc1S(=O)(=O)Nc1c(N2CCOCC2)ccc2cccnc12` [Compound 18, 3-methyl-N-(7-morpho-linoquinolin-8-yl)pyridine-2-sulfonamide] stands 200 to 500 nM.
The same measure, in the same setting: as for `Cc1cccnc1S(=O)(=O)Nc1cccc2cccnc12` [Compound 213, 3-methyl-N-(quinolin-8-yl)pyridine-2-sulfonamide], the figure is 500 to 5000 nM; as for `CN(C)C(=O)c1cccnc1S(=O)(=O)Nc1cccc2cccnc12` [Compound 207, N,N-dimethyl-2-(N-quinolin-8-ylsulfamoyl) nicotinamide], 500 to 5000 nM; as for `CCn1ccc(S(=O)(=O)Nc2cccc3cccnc23)n1` [Compound 193, 1-ethyl-N-(quinolin-8-yl)-1H-pyrazole-3-sulfonamide], 500 to 5000 nM.
Turning to `Cc1ccc(S(=O)(=O)Nc2cccc3c(Cl)ccnc23)nc1` [Compound 119, N-(4-chloro-quinolin-8-yl)-5-methylpyr-idine-2-sulfon-amide], the IC50 lay in the range of 500 to 5000 nM.
Consider `O=S(=O)(Nc1c(Cl)ccc2cccnc12)c1ncccc1Cl` [Compound 73, 3-chloro-N-(7-chloro-quinolin-8-yl)pyridine-2-sulfonamide], for which the IC50 lay in the range of 500 to 5000 nM.
The same measure, in the same setting: as for `CCn1ccnc1S(=O)(=O)Nc1cc(C)cc2cccnc12` [Compound 103, 1-ethyl-N-(6-methylquin-olin-8-yl)-1H-imidazole-2-sulfonamide], the figure is 200 to 500 nM; as for `N#CCc1cccc(S(=O)(=O)Nc2cccc3cccnc23)n1` [Compound 150, 6-(cyanomethyl)-N-(quinolin-8-yl)pyridine-2-sulfonamide], 500 to 5000 nM.
On the same count and under the same terms, as for `Cc1cccnc1S(=O)(=O)Nc1c(Cl)ccc2cccnc12` [Compound 100, N-(7-chloro-quinolin-8-yl)-3-methylpyr-idine-2-sulfon-amide], the figure is 500 to 5000 nM; as for `N#Cc1cccc(S(=O)(=O)Nc2ccc(F)c3cccnc23)c1` [Compound 72, 3-cyano-N-(5-fluoroquin-olin-8-yl)ben-zenesulfon-amide], 500 to 5000 nM.
Same read-out and setting: as for `CN(C)c1nccnc1S(=O)(=O)Nc1c(Cl)ccc2cccnc12` [Compound 76, N-(7-chloro-quinolin-8-yl)-3-(dimethyl-amino)pyr-azine-2-sulfonamide], the figure is 500 to 5000 nM; as for `Cc1ncccc1S(=O)(=O)Nc1cccc2cccnc12` [Compound 155, 2-methyl-N-(quinolin-8-yl)pyridine-3-sulfonamide], 500 to 5000 nM; as for `O=S(=O)(Nc1cccc2cccnc12)c1ccc(C(F)F)nc1` [Compound 153, 6-(difluoromethyl)-N-(quinolin-8-yl)pyridine-3-sulfonamide], 500 to 5000 nM.
For `O=S(=O)(Nc1cccc2cccnc12)c1ccc(C(F)(F)F)nc1` [Compound 190, N-(quinolin-8-yl)-6-(trifluoromethyl) pyridine-3-sulfonamide], the IC50 was below 200 nM.
The same measure, in the same setting: as for `Cc1ccc(S(=O)(=O)Nc2c(Cl)ccc3cccnc23)nc1` [Compound 114, N-(7-chloro-quinolin-8-yl)-5-methylpyr-idine-2-sulfon-amide], the figure is 500 to 5000 nM.
On the same count and under the same terms, as for `Cc1cccnc1S(=O)(=O)Nc1cccc2c(OCC3CC3)ccnc12` [Compound 28, N-(4-(cyclo-propylmeth-oxy)quinolin-8-yl)-3-meth-ylpyridine-2-sulfonamide], the figure is 500 to 5000 nM; as for `Cc1cccnc1S(=O)(=O)Nc1cccc2cc(C3CC3)cnc12` [Compound 29, N-(3-cyclo-propylquin-olin-8-yl)-3-methylpyr-idine-2-sulfonamide], 500 to 5000 nM; as for `O=S(=O)(Nc1cccc2cccnc12)c1ncccc1Cl` [Compound 215, 3-chloro-N-(quinolin-8-yl)pyridine-2-sulfonamide], 500 to 5000 nM.
The same measure, in the same setting: under `Cc1ccc(S(=O)(=O)Nc2c(C)ccc3cccnc23)nc1` [Compound 112, 5-methyl-N-(7-methyl-quinolin-8-yl)-pyridine-2-sulfonamide] stands 500 to 5000 nM.
For the compound `O=S(=O)(Nc1cccc2cccnc12)c1ccc(-c2ccc(F)cc2)nc1` [Compound 182, 6-(4-fluorophenyl)-N-(quinolin-8-yl)pyridine-3-sulfonamide], the IC50 was 500 to 5000 nM.
Same read-out and setting: as for `CCn1ccnc1S(=O)(=O)Nc1cccc2cc(OC)cnc12` [Compound 86, 1-ethyl-N-(3-methoxyquin-olin-8-yl)-1H-imidazole-2-sulfonamide], the figure is 200 to 500 nM; as for `Cc1cccnc1S(=O)(=O)Nc1cccc2c1N(C)CCC2` [Compound 55, 3-methyl-N-(1-methyl-1,2,3,4-tetra-hydroquin-olin-8-yl)-pyridine-2-sulfonamide], 500 to 5000 nM.
On the same count and under the same terms, as for `Cc1cc(NS(=O)(=O)c2nccn2C(C)C)c2ncccc2c1` [Compound 35], the figure is 200 to 500 nM.
